Test systems include NCI-H460 lung; DU-145 prostate; TK-10 renal; MCF7 breast; UACC-257 melanoma; RXF 393 renal; EKVX NSCLC; IGROV1 ovarian; ACHN renal; CAKI-1 renal.
Holding throughout (assay): DTP human tumour cell line panel, 48 h

Experimental findings from PubChem BioAssay (NCI) are described below.

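Exposure lasted 48 hours, with cells grown in 96-well plates and compounds tested at five concentrations. GI50: concentration for 50% inhibition of growth. TGI denotes the concentration required for complete inhibition of growth.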 A value given as a limit tells only on which side of the number the result lay.

Regarding `Clc1nc(Cl)c2ncn(-c3ccccc3)c2n1`, the GI50 in the experiment with NCI-H460 lung was 6240 nM; in the experiment on DU-145 prostate it was 1440 nM; in the experiment on TK-10 renal, 7460 nM; in the experiment on MCF7 breast, 4090 nM; with UACC-257 melanoma, 6860 nM; in the experiment with RXF 393 renal, 5660 nM. In addition, the GI50 with EKVX NSCLC is 4490 nM; in the experiment on IGROV1 ovarian, 1660 nM; in the experiment on ACHN renal, 1960 nM. Besides, the TGI with NCI-H460 lung turned out to be 23500 nM; with DU-145 prostate, 2960 nM; in the experiment with TK-10 renal, 20900 nM; in the experiment with MCF7 breast it was 24300 nM; with UACC-257 melanoma, 20200 nM; with RXF 393 renal, 18800 nM. The TGI in the experiment with EKVX NSCLC stood at 19200 nM; in the experiment on IGROV1 ovarian it was 3380 nM; in the experiment with ACHN renal, 4120 nM.

With `CC(=O)Oc1ccc(C2OC(c3ccc4ccccc4c3OC(C)=O)=NN2C(C)=O)c(OC(C)=O)c1` (stereo not drawn), the GI50 is 346 nM with NCI-H460 lung; 476 nM in the experiment on DU-145 prostate; 240 nM with CAKI-1 renal; 774 nM in the experiment with TK-10 renal; 413 nM with MCF7 breast; 331 nM with UACC-257 melanoma. The GI50 is 432 nM in the experiment with RXF 393 renal, 348 nM with IGROV1 ovarian and 264 nM with ACHN renal. For the same compound, the TGI in the experiment on NCI-H460 lung was over 36000 nM; in the experiment on DU-145 prostate, over 100000 nM; in the experiment with CAKI-1 renal it was 5440 nM; in the experiment on TK-10 renal, over 53800 nM; with MCF7 breast, over 38600 nM; in the experiment with UACC-257 melanoma it was 6590 nM. The TGI is 16300 nM in the experiment with RXF 393 renal, 15100 nM in the experiment with IGROV1 ovarian and over 100000 nM in the experiment with ACHN renal.

As for `CC(C)C[C@H](NC(=O)[C@@H](Cc1ccccc1)n1ccc(Nc2ccccc2)cc1=O)B(O)O`, the GI50 in the experiment with NCI-H460 lung was 836 nM; with DU-145 prostate, 783 nM; with CAKI-1 renal, 403 nM; with TK-10 renal, 269 nM; in the experiment with MCF7 breast it was 374 nM; in the experiment on UACC-257 melanoma, 404 nM. In addition, the GI50 in the experiment on RXF 393 renal is 234 nM; in the experiment with IGROV1 ovarian, 1330 nM; in the experiment on ACHN renal it was 358 nM. Besides, the TGI with NCI-H460 lung worked out at 8290 nM; in the experiment with DU-145 prostate, 16700 nM; in the experiment with CAKI-1 renal, 5450 nM; in the experiment on TK-10 renal, 980 nM; in the experiment on MCF7 breast it was 14600 nM; in the experiment with UACC-257 melanoma, 2480 nM. Further, the TGI with RXF 393 renal is 564 nM; with IGROV1 ovarian, 27900 nM; in the experiment on ACHN renal, over 100000 nM.

Take `COC(=O)C1c2cc3c(c(O)c2CCC1(C)O)C(=O)c1c(O)cc2c(c1C3=O)OC1OC2(C)C(O)C(N(C)C)C1O` (stereo not drawn): the TGI with NCI-H460 lung was determined as 2110 nM; in the experiment on DU-145 prostate, 561 nM; in the experiment on TK-10 renal it was 1660 nM; with MCF7 breast, 2500 nM; in the experiment with UACC-257 melanoma, 739 nM; in the experiment with RXF 393 renal, 1550 nM. Also, the TGI with EKVX NSCLC came out at 774 nM; with IGROV1 ovarian, 2350 nM; in the experiment on ACHN renal, 1170 nM.

Regarding `CNC(=O)/C=C/C1=CN2C(=O)c3ccc(C)c(O)c3NC(OC)C2C1` (stereo not drawn), the TGI is 1030 nM with NCI-H460 lung; under 10 nM in the experiment on DU-145 prostate; 2630 nM with CAKI-1 renal; 16600 nM with MCF7 breast; under 16.9 nM in the experiment with UACC-257 melanoma; under 10 nM in the experiment with RXF 393 renal. Further, the TGI in the experiment on EKVX NSCLC was under 34.4 nM; in the experiment with IGROV1 ovarian it was over 100000 nM.

Take `O=S(=O)(NCCNc1nccc(-c2c(-c3ccc(F)cc3)nc3sccn23)n1)c1ccc(O)cc1`: the GI50 in the experiment with NCI-H460 lung is 845 nM; with DU-145 prostate, 3170 nM; in the experiment on CAKI-1 renal, 4070 nM; with TK-10 renal, 4810 nM; with MCF7 breast, 476 nM; in the experiment with UACC-257 melanoma, 5840 nM. Moreover, the GI50 with RXF 393 renal was 4270 nM; in the experiment with IGROV1 ovarian it was 1700 nM; in the experiment with ACHN renal it was 2030 nM. In addition, the TGI was 27800 nM in the experiment on NCI-H460 lung; 28800 nM in the experiment on DU-145 prostate; 48300 nM in the experiment with CAKI-1 renal; 26300 nM in the experiment on TK-10 renal; 14400 nM in the experiment on MCF7 breast; 34700 nM in the experiment with UACC-257 melanoma. Besides, the values for the total growth inhibition concentration (TGI) in the experiment with RXF 393 renal, with IGROV1 ovarian and in the experiment on ACHN renal were 24800 nM, 13700 nM and 45600 nM, respectively.

In the case of `O=C(/C=C(/C=C/c1cccc2[nH]ccc12)OB(F)F)/C=C/c1cccc2[nH]ccc12`, the GI50 is 684 nM in the experiment with NCI-H460 lung; 753 nM in the experiment with DU-145 prostate; 876 nM in the experiment with CAKI-1 renal; 1930 nM with TK-10 renal; 436 nM in the experiment with MCF7 breast; 2150 nM in the experiment with UACC-257 melanoma. Also, the GI50 in the experiment with EKVX NSCLC is 1460 nM; in the experiment with IGROV1 ovarian, 620 nM; in the experiment with ACHN renal, 514 nM. Also, the TGI came to 2910 nM in the experiment with NCI-H460 lung; 2070 nM in the experiment on DU-145 prostate; 3130 nM in the experiment with CAKI-1 renal; 7420 nM with TK-10 renal; 9450 nM with MCF7 breast; 11800 nM with UACC-257 melanoma. The values for the TGI with EKVX NSCLC, in the experiment with IGROV1 ovarian and in the experiment with ACHN renal were 5540 nM, 6000 nM and 2040 nM, respectively.

In the case of `O=C1/C(=C/c2ccc(Cl)cc2)CN(Cc2cn(CCCNc3ccnc4cc(Cl)ccc34)nn2)C/C1=C\c1ccc(Cl)cc1`, the GI50 in the experiment on NCI-H460 lung was 429 nM; with DU-145 prostate it was 1160 nM; in the experiment with CAKI-1 renal it was 734 nM; with TK-10 renal it was 1700 nM; with MCF7 breast, 362 nM; in the experiment with UACC-257 melanoma, 1720 nM. The figures for the GI50 in the experiment with RXF 393 renal, in the experiment on IGROV1 ovarian and in the experiment with ACHN renal were 1650 nM, 1290 nM and 1450 nM, respectively. The TGI stood at 2060 nM in the experiment with NCI-H460 lung; 2470 nM in the experiment on DU-145 prostate; 2920 nM in the experiment with CAKI-1 renal; 3150 nM in the experiment on TK-10 renal; 1460 nM in the experiment with MCF7 breast; 3250 nM in the experiment with UACC-257 melanoma. In addition, the figures for the TGI in the experiment with RXF 393 renal, in the experiment on IGROV1 ovarian and in the experiment on ACHN renal were 3150 nM, 3120 nM and 2840 nM, respectively.

As for `c1cc[n+](Cc2c3ccccc3cc3c2ccc2ccccc23)cc1`, the GI50 in the experiment with NCI-H460 lung is 3260 nM; with DU-145 prostate, 6450 nM; in the experiment with TK-10 renal, 8200 nM; in the experiment with MCF7 breast, 3250 nM; with UACC-257 melanoma, 2340 nM; in the experiment on RXF 393 renal, 8610 nM. Besides, the GI50 was 19500 nM with EKVX NSCLC, 1670 nM in the experiment with IGROV1 ovarian and over 100000 nM with ACHN renal. Besides, the TGI in the experiment with NCI-H460 lung came to 11900 nM; in the experiment on DU-145 prostate, 20400 nM; with TK-10 renal it was 28200 nM; in the experiment on MCF7 breast, 13200 nM; with UACC-257 melanoma, 5480 nM; with RXF 393 renal it was 47500 nM. Besides, the TGI was over 100000 nM in the experiment with EKVX NSCLC, 5930 nM in the experiment with IGROV1 ovarian and over 100000 nM in the experiment with ACHN renal.

What is called GI50 is the concentration giving 50% growth inhibition. Usually TGI stands for the concentration at which net growth stops. The low end stands for more potent growth arrest, the high end for less potent growth arrest.
